The values that follow come from paper PMC11212140, “Molecular Bidents with Two Electrophilic Warheads as a New Pharmacological Modality” (ACS Central Science, 2024).

Series [1] relates to T1, MAP4K3.
T1 construct: purchased ActivX Biosciences (KiNativ)
The series can be described thus: KiNativ profiling in H3255 cells. It counts as cell-based, human. To be noted: 2.5 µM. The gist of the method:
(§1)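 In H3255 cells, 6.5x10^6 per sample, a 2 h treatment with DMSO or 2.5 μM ZNL-0056 preceded collection. Pellets were frozen in liquid nitrogen and the KiNativ experiment was finished by ActivX Biosciences.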

For series [2], the system named is T2, STLK5.
T2 construct: purchased ActivX Biosciences (KiNativ)
The series can be described thus: KiNativ profiling in H3255 cells. Type of series: cell-based, human. To be noted: 2.5 µM. The gist of the method:
as §1

Series [3] concerns T3, PRP4.
T3 construct: purchased ActivX Biosciences (KiNativ)
As to the kind of experiment: KiNativ profiling in H3255 cells. Type of series: cell-based, human. To be noted: 2.5 µM; Lys2; CNILHADIKPDNILVNESK

Series [4] concerns EGFR^L858R/C775S Ba/F3 cells. As to the kind of experiment: Antiproliferation assay (CellTiter-Glo). It counts as cell-based. Conditions: vs EGFR^L858R Ba/F3. How it is done:
Figure S6 Dose-response curves for the indicated compounds in EGFRL858R, EGFRL858R/C797S, and EGFRL858R/C775S Ba/F3 cells following 72 h of treatment. Cell viability was assessed with CellTiter-Glo.
Data are presented as the mean ± SEM (n = 4). Representative data from three independent experiments
(§2) (1 picture or pasted object on this page, not shown here)
For infection of Ba/F3 cells, 2.5 mL of viral supernatant and 8 μg/mL polybrene was added to 2.5 million cells per well in six-well plates. The plate was centrifuged at 2500 rpm for 90 minutes at 37 °C for the spin infection. Then, virus-containing medium was removed 48 hours later and successfully infected cells were selected with the addition of 1 μg/mL puromycin to the medium.
After 3 days, cells were transferred into the fresh medium without IL-3 and puromycin. IL-3-independent transformed cells were maintained in RPMI medium 1640 supplemented with 10%
FBS. Expression of EGFR was examined by Western blot.
Immunoblotting and antibodies
Cells were lysed in RIPA buffer (150 mM NaCl, 1.0% IGEPAL® CA-630, 0.5% sodium deoxycholate, 0.1% SDS, 50 mM Tris, pH 8.0) (Sigma, Cat# R0278) with protease inhibitor and phosphatase inhibitor (Roche). The protein concentrations were measured by BCA analysis (Thermo Fisher Scientific, Cat # PI23225). […]
or IRDye 680RD goat anti-Mouse IgG (LICOR Biosciences , Cat # 926-68070) secondary antibodies at room temperature for 1 hour. The membranes were detected on Odyssey CLx system. […]
treatment. Cell viability was determined by using CellTiter-Glo (Promega #G7571) according to the manufacturer’s instructions, measuring luminescence using an Envision plate-reader (PerkinElmer Inc.). […]
After 6 hours treatment, cells were pelleted, washed with PBS once and lysed with IP lysis buffer (25mMTris-HCl pH 7.4, 150mM NaCl, 1 mM EDTA, 1% NP-40 and 5% glycerol) (Thermo Fisher Scientific, Cat#87788) containing protease/phosphatase inhibitor cocktail (Roche). The protein concentrations were measured by BCA analysis (Pierce). […]
On the technique in general: In ATP-based viability assays light output follows the ATP content of the culture.

Series [5] addresses MEK5 (Homo sapiens, UniProt Q13163). The series can be described thus: LanthaScreen Binding activity assay. To be noted: read-out: IC50 (nM) against MEK5.
Text: Table S2. Biochemical activities against a panel of kinase targets […]
aIC50 (nM) against EGFR L858R, BTK, JAK3, ITK and BLK were obtained with Z’-LYTE biochemical assay. bIC50 (nM) against MEK5 was obtained with LanthaScreen Binding activity assay. c Kd (nM) of MKK7 were obtained from KdELECT assays (DiscoverX). […]
as §2
(TR-FRET usually uses a lanthanide donor and a delayed reading to cut background.)

The nature of series [6]: In vivo pharmacokinetics in mice. Conditions: male C57BL/6 mice. How it is done:
To address this question, we tested the GSH reactivity of ZNL-0056 (Table S3) and its in vivo pharmacokinetic (PK) properties using three routes of administration including: 1 mg/kg IV, 3 mg/kg IP, and 10 mg/kg PO in male C57BL/6 mice (Table S4).
Table S4. Effect of ZNL-0056 in vivo- PK Parameters
Dose: 1mg/Kg IV, 3mg/Kg IP, 10mg/Kg PO. Formulation: 0.1mg/mL(IV) and 0.3mg/mL (IP)
and 1mg/mL (PO) solution in 5/25/70 EtOH/PEG300/D5W. […]

The mark [7] stands for this setting: Activation Loop, YSVKVLPWLSPEVLQQNLQGYDAK

SMILES strings stand for the structures.

MEK5, sequence (Q13163 whole entry, species assumed): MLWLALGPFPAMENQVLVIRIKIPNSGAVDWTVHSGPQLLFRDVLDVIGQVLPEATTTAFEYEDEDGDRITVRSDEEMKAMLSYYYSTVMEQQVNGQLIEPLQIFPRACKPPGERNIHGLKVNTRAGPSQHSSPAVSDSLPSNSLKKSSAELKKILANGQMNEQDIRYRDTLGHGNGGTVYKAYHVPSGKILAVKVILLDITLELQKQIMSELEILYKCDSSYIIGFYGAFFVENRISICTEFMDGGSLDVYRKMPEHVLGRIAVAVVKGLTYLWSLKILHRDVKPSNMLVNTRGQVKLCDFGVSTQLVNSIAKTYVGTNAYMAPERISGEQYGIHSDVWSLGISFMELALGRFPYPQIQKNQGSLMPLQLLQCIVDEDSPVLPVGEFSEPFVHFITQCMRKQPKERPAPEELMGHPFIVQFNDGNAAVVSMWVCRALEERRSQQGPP

Broadly, the Inhibition is the change of the read-out against control, counted positive when it falls. Regarding `C=CC(=O)Nc1cc(Nc2nccc(-c3cn(C)c4ccccc34)n2)c(OC)cc1N(C)CCN(C)C` [Osimertinib, osimertinib, reference compound], the Inhibition in series [1] (Lys1, NVNTGELAAIKVIK) is given as -4.2%; in series [1] (Lys2, DIKGANILLTDNGHVK) it was 3.2%; in series [2] (setting [7]), 2.8%; in series [2] (Lys2, SVKASHILISVDGK), 3.2%; in series [3], -3.8%.
As a reminder, the IC50 is the concentration at which inhibition is half-maximal. As usually defined, the half-life is the time needed for the level to fall by half in the phase considered. As usually defined, the bioavailability is the share of a dose that reaches the circulation, judged against a reference dose that is usually intravenous. Higher therefore signals much systemic uptake. `C=CC(=O)Nc1cc(C(=O)Nc2nc3cccc(C)c3n2[C@@H]2CCCCN(C(=O)C=C)C2)cs1` [ZNL-0056]: the Inhibition in series [1] (Lys1, NVNTGELAAIKVIK) was 9.4%; in series [1] (Lys2, DIKGANILLTDNGHVK), 21.1%; in series [2] (setting [7]) it was -9.2%; in series [2] (Lys2, SVKASHILISVDGK) it was -41.2%. The “potency loss (shift) in the EGFR^L858R/C775S mutant” value in series [4] came to 2 fold. Moreover, in series [5], the IC50 amounted to 2500 nM. In addition, the figures for the “area under the curve” value in series [6] (1 mg/kg IV) and in series [6] (10 mg/kg PO) were 21 820 min·ng/mL and 63 341 min·ng/mL, respectively. In addition, the entries for the “average maximal plasma concentration” value in series [6] (3 mg/kg IP) and in series [6] (10 mg/kg PO) were 1.3 µmol/L and 1.4 µmol/L, respectively. In addition, the half-life in series [6] (mouse, plasma, 1 mg/kg IV) was 19.8 min. In series [6] (mouse, plasma, 10 mg/kg PO), the bioavailability is 24%.
